Moisture uptake, particle size and bioavailability data for three compounds are collected here from patent US8074906B2, “Process for milling and preparing powders and compositions produced thereby” (Nanotherapeutics, Inc., priority 2005, dated 2011).

Where only a bound is given, the exact number is not on record here.

Data set [1] is described as follows: moisture uptake (weight change) at room temperature and humidity. The data set is classed as physicochemical. As to conditions: lyophilized simple salt, 24 hours. The protocol:
Initial Zn-DTPA simple salt solutions were prepared and lyophilized, producing a hygroscopic mixture not stable at room temperature and humidity (>10% moisture uptake in 24 hours). Zn-DTPA (trisodium zinc diethylenetriaminepentaacetate) were then mixed with (1) hydroxyl-propyl-methylcellulose (HPMC, K100M, Dow), (2) lactose (USP, Hawkins), and (3) silica dioxide (Sipernat 50S, Degussa) and dried using lyophilization. Preparation procedures include (A) mixing ingredients (75 and 90% Zn-DTPA, 1 g total each) into 10 ml DI water and adjusting pH with NaOH, (B) freezing at −20 C, (C) lyophilizing overnight (shelves at room temp), and (D) measuring the moisture uptake (weight change) at room temperature (20-25° C.) and humidity (40-55%) at 1 month.

Data set [2] is described as follows: particle size by Coulter DELSA 440. It counts as physicochemical. The source says:
Oxcarbazepine, an antiepileptic drug marketed as Trileptal® by Novartis, is a white crystalline powder practically insoluble in water. Oxcarbazepine (100%) was milled in 1 kg batches according to the method described in EXAMPLE 1.
[…]

Data set [3] in a line: in vivo pharmacokinetics of taurine formulations in rats. Conditions: rat, oral, read-out: bioavailability (BA).

On to `O=C([O-])CN(CCN(CC(=O)[O-])CC(=O)[O-])CCN(CC(=O)[O-])CC(=O)[O-].[Na+].[Na+].[Na+].[Zn+2]` [Zn-DTPA, trisodium zinc diethylenetriaminepentaacetate], for which, in data set [1], the moisture uptake is reported as over 10%.

Take `NC(=O)N1c2ccccc2CC(=O)c2ccccc21` [Oxcarbazepine]: the particle size in data set [2] (Pass 1) amounted to 2250 nm; in data set [2] (Pass 2), 524 nm; in data set [2] (Pass 3), 400 nm; in data set [2] (Pass 4) it was 264 nm.

With `NCCS(=O)(=O)O` [unformulated taurine, Taurine], in data set [3], the bioavailability was determined as 18%.

As usually defined, the bioavailability is the share of a dose that reaches the circulation, judged against a reference dose that is usually intravenous.
